Measurements taken from patent US20170190671A1, “BIS(ARYL)CATECHOL DERIVATIVES AS HERBICIDES” (E I DU PONT DE NEMOURS AND COMPANY, priority 2014, published 2017).

What was measured:
Experiment in all cases: Test C postemergence
Format in all cases: in vivo
[1] = tested on: large (Lg) crabgrass (Digitaria sanguinalis); conditions: Digitaria sanguinalis, post-emergence, 336 h, Postemergence, scale 0 to 100, read-out: Plant response rating, Crabgrass, Large
[2] = tested on: barnyardgrass (Echinochloa crus-galli); conditions: Echinochloa crus-galli, post-emergence, Postemergence, scale 0 to 100, read-out: Plant response rating, Barnyardgrass
kochia (Kochia scoparia) = conditions: Bassia scoparia, post-emergence, Postemergence, scale 0 to 100, read-out: Plant response rating, Kochia
[3] = tested on: morningglory (Ipomoea coccinea); conditions: Ipomoea, post-emergence, 336 h, Postemergence, scale 0 to 100, read-out: Plant response rating, Morningglory
wild oat (Avena fatua) = conditions: Avena fatua, post-emergence, Postemergence, scale 0 to 100, read-out: Plant response rating, Oat, Wild
[4] = tested on: galium (catchweed bedstraw, Galium aparine); conditions: Galium, post-emergence, 336 h, Postemergence, scale 0 to 100, read-out: Plant response rating, Galium
soybean (Glycine max) = conditions: Glycine max, post-emergence, Postemergence, scale 0 to 100, read-out: Plant response rating, Soybean
[5] = tested on: ragweed (common ragweed, Ambrosia elatior); conditions: Ambrosia artemisiifolia, post-emergence, 336 h, Postemergence, scale 0 to 100, read-out: Plant response rating, Ragweed
corn (Zea mays) = conditions: Zea mays, post-emergence, 336 h, Postemergence, scale 0 to 100
[6] = tested on: winter wheat (Triticum aestivum); conditions: Triticum aestivum, post-emergence, 336 h, Postemergence, scale 0 to 100, read-out: Plant response rating, Wheat
[7] = tested on: johnsongrass (Sorghum halepense); conditions: Sorghum halepense, post-emergence, 336 h, Postemergence, scale 0 to 100, read-out: Plant response rating, Johnsongrass
[8] = tested on: Italian ryegrass (Lolium multiflorum); conditions: Lolium multiflorum, post-emergence, 336 h, Postemergence, scale 0 to 100, read-out: Plant response rating, Ryegrass, Italian
[9] = tested on: pigweed (Amaranthus retroflexus); conditions: Amaranthus retroflexus, post-emergence, 336 h, Postemergence, scale 0 to 100, read-out: Plant response rating, Pigweed
[10] = tested on: waterhemp (common waterhemp, Amaranthus rudis); conditions: Amaranthus tuberculatus, post-emergence, Postemergence, scale 0 to 100, read-out: Plant response rating, Waterhemp
[11] = tested on: oilseed rape (Brassica napus); conditions: Brassica napus, post-emergence, Postemergence, scale 0 to 100, read-out: Plant response rating, Oilseed Rape

SMILES: N#Cc1cccc(Oc2ncc(Cl)cn2)c1Oc1ccc(Cl)cn1 [Compound 16, 2-[(5-chloro-2-pyridinyl)oxy]-3-[(5-chloro-2-pyrimidinyl)oxy]benzonitrile]
- pest or weed control at 16 g/ha ([1]; 16 g ai/ha): 10%
- pest or weed control at 31 g/ha ([1]; 31 g ai/ha): 15%
- pest or weed control at 62 g/ha ([1]; 62 g ai/ha): 15%
- pest or weed control at 125 g/ha ([1]; 125 g ai/ha): 20%
- pest or weed control at 16 g/ha ([2]; 16 g ai/ha): 10%
- pest or weed control at 31 g/ha ([2]; 31 g ai/ha): 15%
- pest or weed control at 62 g/ha ([2]; 62 g ai/ha): 15%
- pest or weed control at 125 g/ha ([2]; 125 g ai/ha): 20%
- pest or weed control at 16 g/ha (kochia (Kochia scoparia); 16 g ai/ha): 90%
- pest or weed control at 31 g/ha (kochia (Kochia scoparia); 31 g ai/ha): 90%
- pest or weed control at 62 g/ha (kochia (Kochia scoparia); 62 g ai/ha): 90%
- pest or weed control at 125 g/ha (kochia (Kochia scoparia); 125 g ai/ha): 95%
- pest or weed control at 31 g/ha ([3]; 31 g ai/ha): 90%
- pest or weed control at 62 g/ha ([3]; 62 g ai/ha): 90%
- pest or weed control at 125 g/ha ([3]; 125 g ai/ha): 95%
- pest or weed control at 31 g/ha (wild oat (Avena fatua); 31 g ai/ha): 10%
- pest or weed control at 62 g/ha (wild oat (Avena fatua); 62 g ai/ha): 5%
- pest or weed control at 125 g/ha (wild oat (Avena fatua); 125 g ai/ha): 5%
- pest or weed control at 16 g/ha ([4]; 16 g ai/ha): 60%
- pest or weed control at 31 g/ha ([4]; 31 g ai/ha): 70%
- pest or weed control at 62 g/ha ([4]; 62 g ai/ha): 70%
- pest or weed control at 125 g/ha ([4]; 125 g ai/ha): 95%
- plant injury at 31 g/ha (soybean (Glycine max); 31 g ai/ha): 70%
- plant injury at 62 g/ha (soybean (Glycine max); 62 g ai/ha): 45%
- plant injury at 125 g/ha (soybean (Glycine max); 125 g ai/ha): 55%
- pest or weed control at 31 g/ha ([5]; 31 g ai/ha): 60%
- pest or weed control at 62 g/ha ([5]; 62 g ai/ha): 50%
- pest or weed control at 125 g/ha ([5]; 125 g ai/ha): 70%
- Corn plant response rating (crop injury, 0 = no effect, 100 = complete kill) at 16 g/ha (corn (Zea mays); 16 g ai/ha): 10%
- Corn plant response rating (crop injury, 0 = no effect, 100 = complete kill) at 31 g/ha (corn (Zea mays); 31 g ai/ha): 20%
- Corn plant response rating (crop injury, 0 = no effect, 100 = complete kill) at 62 g/ha (corn (Zea mays); 62 g ai/ha): 10%
- Corn plant response rating (crop injury, 0 = no effect, 100 = complete kill) at 125 g/ha (corn (Zea mays); 125 g ai/ha): 15%
- plant injury at 31 g/ha ([6]; 31 g ai/ha): 0%
- plant injury at 62 g/ha ([6]; 62 g ai/ha): 5%
- plant injury at 125 g/ha ([6]; 125 g ai/ha): 0%
- pest or weed control at 16 g/ha ([7]; 16 g ai/ha): 5%
- pest or weed control at 31 g/ha ([7]; 31 g ai/ha): 5%
- pest or weed control at 62 g/ha ([7]; 62 g ai/ha): 10%
- pest or weed control at 125 g/ha ([7]; 125 g ai/ha): 10%
- pest or weed control at 31 g/ha ([8]; 31 g ai/ha): 10%
- pest or weed control at 62 g/ha ([8]; 62 g ai/ha): 5%
- pest or weed control at 125 g/ha ([8]; 125 g ai/ha): 15%
- pest or weed control at 31 g/ha ([9]; 31 g ai/ha): 80%
- pest or weed control at 62 g/ha ([9]; 62 g ai/ha): 85%
- pest or weed control at 125 g/ha ([9]; 125 g ai/ha): 100%
- pest or weed control at 31 g/ha ([10]; 31 g ai/ha): 90%
- pest or weed control at 62 g/ha ([10]; 62 g ai/ha): 95%
- pest or weed control at 125 g/ha ([10]; 125 g ai/ha): 90%
- plant injury at 31 g/ha ([11]; 31 g ai/ha): 70%
- plant injury at 62 g/ha ([11]; 62 g ai/ha): 80%
- plant injury at 125 g/ha ([11]; 125 g ai/ha): 50%
